The text below walks through data of patent US20230390287A1, “MODULATORS OF PD-L1/PD-1 INTERACTION AND USES THEREOF” (Ramot at Tel-Aviv University Ltd., priority 2021, published 2023).

For assay [1], the system named is PD-1/PD-L1 interaction on A375 cells. The assay can be described thus: Cell-based PD-1/PD-L1 inhibition (accessible PD-L1 by flow cytometry), A375. Also noted: species or system human. Conditions: Homo sapiens, A-375; A375 stimulated with IFN-γ; 72 hours. On the procedure: (§1) PD-1/PD-L1 Inhibition on Human Melanoma and Breast Cancer Cell Lines:
(§2) Cells (0.1×10^6 cells) were tested for PD-1/PD-L1 inhibition by co-incubation of hit compounds, DMSO (background), BMS-202 (Selleckchem) and anti-human PD-L1 (BioxCell, Clone 29E.2A3) (positive controls) for 72 hours in 2 ml DMEM medium. Non-confluent cell cultures were scraped into single-cell suspension, washed with PBS, and counted. Cells were subsequently stained with PD-1 fluorescent proxy for 30 minutes at 4° C., washed twice and resuspended in FACS buffer. Cells were analyzed using BD LSRFortessa (BD Biosciences) and data analyzed with FlowJo software for Mac (FlowJo, LLC 2013-2016). Mean fluorescence intensity (MFI) was derived from each sample. The PD-1/PD-L1 inhibition in cells was measured by a decrease in MFI relative to background.
(§3) The remaining accessible PD-L1 was determined by flow cytometry.

Another assay concerns the target PD-1/PD-L1 interaction (Homo sapiens (Human), UniProt Q9NZQ7). The assay can be described thus: HTRF PD-1/PD-L1 binding assay. Format: biochemical. Further details: key to HTF assay (100 μM): +: positive compounds using 100 μM on HTRF.
Assay [2] relates to PD-1/PD-L1 interaction on MDA-MB-231 cells. The assay can be described thus: Cell-based PD-1/PD-L1 inhibition (accessible PD-L1 by flow cytometry), MDA-MB-231. Conditions: Homo sapiens, 72 hours. Also noted: species or system human. The method, then:
as §1, §2
The selected cell lines were incubated with the selected compounds to assess compound-binding affinities, and consequently PD-1/PD-L1 inhibition. The levels of remaining accessible PD-L1 in these cells were evaluated by FACS analysis using a fluorescence PD-1 proxy. To understand compound activity, different incubation times (24, 48 and 72 hours) were evaluated on MDA-MB-231 breast cancer cell line.
as §3

The test system of assay [3] is patient-derived tumor cells and autologous PBMC (CD8+ T cells). The assay can be described thus: Co-culture of patient-derived PBMC and autologous tumor cells. The class given is cell-based, human. Conditions: 72 hours of co-culture; 7 patients. On the procedure: Tumor—Lymphocyte Co-Culture:
One day before co-culture, PBMC were re-suspended in RPMI-1640 supplemented with 150 U/ml IL-2 (Peprotech) and cultured overnight at 37° C. Prior to co-culture, tumor cells were stimulated overnight with 200 ng/ml human recombinant IFN-γ (Peprotech). The next day, tumor cells were scraped to single cells and re-suspended in RPMI. PBMC were seeded at a density of […] and stimulated with single cell-dissociated tumor cells at a 2:1 Effector:Target ratio. Co-cultures were performed in the presence of 150 U/ml IL-2 (Peprotech), 5 μg/ml of anti-CD28 (BioxCell) and αPD-L1 blocking antibody or small-molecule inhibitor for 72 hours. The cells were then stained with fluorochrome-labeled antibodies and analyzed using an LSR Fortessa (BD Biosciences) and FlowJo software. […]
The PBMC and tumor cells were co-cultured and treated with anti-CD28 (blue) and PD-L1 inhibitors (small-molecule inhibitor Compound 69 (yellow) and anti-PD-L1 (red)) for 72 hours. The PD-1/PD-L1 inhibition and T-cell activation were assessed using flow cytometry, and the obtained data is shown in FIGS. 8B-E. The anti-PD-L1 (αPD-L1) was added as the relevant control for PD-L1 inhibition.

The subject of assay [4] is patient-derived melanoma (Mel4) spheroids with autologous PBMC. The assay can be described thus: 3D patient-derived melanoma spheroid - PBMC co-culture. To be noted: vs αPD-L1 and untreated. The class given is cell-based, human. The method, then: 3D Patient-Derived Tumor Spheroids—Lymphocyte Co-Culture:
After isolation of tumor cells, cells were washed and cultured for up to 3 days. This allowed the isolation of adherent cells that were then scrapped and seeded in Nunclon Sphera 96-well plate (Thermo Fisher Scientific) to create a unique uniform spheroid in each well. Spheroids were ready on day 2-5. Thereafter, spheroids were embedded in reduced growth Matrigel (Corning) with PBMC (1:100) and were left untreated or were treated with the small-molecule inhibitor Compound 69 or αPD-L1, dissolved in the appropriate cell culture medium.
3D co-culture was fixed with 4% paraformaldehyde and blocked by PBS with 2% (m/v) BSA. Thereafter, the samples were incubated with CD8 (MA5-16345—Invitrogen) (1:50) in PBS with 1% (v/v) Tween® 20 for 18 hours at 4° C. Then, 4 μg/ml of secondary antibody (A-11008, Invitrogen) were added, 3D spheroids were stained with Hoechst 33342 (10 μg/ml) for 20 minutes. […] The different z-stacks were merged and analyzed by Fiji-ImageJ.
The ability of PD-1/PD-L1 inhibitors (small-molecule inhibitor Compound 69 and αPD-L1) to promote CD8^+ T-cell infiltration into the tumor site was evaluated using a 3D co-culture system. […] The CD8^+ T-cell infiltration (green) was evaluated after 72 hours of co-culture by confocal microscopy. […]

Entries after “also recorded” stand apart in the source; their conditions may differ.

Chain of PD-1/PD-L1 interaction (Q9NZQ7 19-238): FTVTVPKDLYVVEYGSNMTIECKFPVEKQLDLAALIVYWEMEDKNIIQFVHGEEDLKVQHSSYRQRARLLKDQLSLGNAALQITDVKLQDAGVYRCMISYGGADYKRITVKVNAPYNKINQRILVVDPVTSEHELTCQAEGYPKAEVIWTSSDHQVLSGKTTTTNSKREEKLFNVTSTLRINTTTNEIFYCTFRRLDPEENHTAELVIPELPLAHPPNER

With `CCCCCN(CCCCC)C(C)C(=O)c1cc(C)c2ccc3cc(C(C)C)ccc3c2c1.Cl` (stereo not shown) [Compound 69], the IC50 in assay [1] is 1000 nM; at PD-1/PD-L1 interaction (HTRF dose-response starting from 100 μM), 196 nM; at PD-1/PD-L1 interaction (Table A, HTRF dose-response, NA = Not applicable (No dose-response effect)) it was 196 nM; on PD-1/PD-L1 interaction (Table B, HTRF dose-response, NA = no dose-response effect), 196 nM; in assay [2], 1000 nM. Besides, the “HTF assay (100 μM)” value at PD-1/PD-L1 interaction (compounds at 100 μM, hits defined as at least 50% inhibition of PD-1/PD-L1 interaction) is on record as “+”. Further, in assay [3], the “CD107a upregulation in CD8+ T cells” value is on record as “induced”. Also, the “IFN-γ secretion in CD8+ T cells” value in assay [3] was “induced”. Also, in assay [4] (72 hours of co-culture), the “CD8+ T cell infiltration within the tumor spheroid” value is reported as “higher CD8^+ T cell infiltration”. Moreover, in assay [4] (Mel4 spheroids), the “sprouting of patient-derived melanoma cells” value is “inhibited the melanoma cells sprouting; also recorded: strongly inhibited the sprouting”.
